Here are results for one molecule from patent publication US11578083B2, “Pyrimidinium compounds and their mixtures for combating animal pests” (BASF SE, priority 2017, dated 2023).

Format in all cases: in vivo
The subject of test [1] is Rice green leafhopper (Nephotettix virescens). The test can be described thus: B.1 Rice green leafhopper, sprayed rice seedlings. The following applies: 72 h. The protocol: B.1 Rice Green Leafhopper (Nephotettix virescens):
Rice seedlings are cleaned and washed 24 hours before spraying. The active compounds are formulated in 50:50 acetone:water (vol:vol), and 0.1% vol/vol surfactant (EL 620) is added. Potted rice seedlings are sprayed with 5 ml test solution, air dried, placed in cages and inoculated with 10 adults. Treated rice plants are kept at about 28-29° C. and relative humidity of about 50-60%. Percent mortality is recorded after 72 hours.

Test [2] concerns Rice brown plant hopper (Nilaparvata lugens). The test can be described thus: B.2 Rice brown plant hopper, sprayed rice seedlings. The settings on record: 72 h. The procedure:
B.2 Rice Brown Plant Hopper (Nilaparvata lugens):
Rice seedlings are cleaned and washed 24 hours before spraying. The active compounds are formulated in 50:50 acetone:water (vol:vol) and 0.1% vol/vol surfactant (EL 620) is added. Potted rice seedlings are sprayed with 5 ml test solution, air dried, placed in cages and inoculated with 10 adults. Treated rice plants are kept at about 28-29° C. and relative humidity of about 50-60%. Percent mortality is recorded after 72 hours.

The next test concerns Chilo suppressalis. The test can be described thus: B.3a Rice stem borer vial bioassay. The settings on record: 72 h. The procedure: Field-collected rice straws were washed with tap water and cut for a certain of length. Straws were air dried before placing individually in vials (=replicate, 3×). About 125 μl test solution was sprayed per vial. Treated rice straws in vials were air dried under the laboratory hood. After air-drying, each straw was inoculated with 10 newly-emerged (0-day old) stem borer larvae. Vials were then covered. Set-up was kept in a holding room maintained at 27° C. and 65% RH for three days. At 3 days after inoculation, rice straws were manually dissected for larval mortality assessment. The data (Table C) show activity against two species of rice stem borers.

The test system of test [3] is vetch aphid (Megoura viciae). The test can be described thus: Test 1 vetch aphid, leaf disks (mixtures). The settings on record: Table 1, solo application I-R-1, use rate 20 ppm. The source says:
Synergism can be described as an interaction where the combined effect of two or more compounds is greater than the sum of the individual effects of each of the compounds. The presence of a synergistic effect in terms of percent control, between two mixing partners (X and Y) can be calculated using the Colby equation (Colby, S. R., 1967, Calculating Synergistic and Antagonistic Responses in Herbicide Combinations, Weeds, 15, 20-22):
When the observed combined control effect is greater than the expected combined control effect (E), then the combined effect is synergistic.
The analysis of synergism or antagonism between the mixtures or compositions was determined using Colby's equation.
(§1) For evaluating control of vetch aphid (Megoura viciae) through contact or systemic means the test unit consisted of 24-well-microtiter plates containing broad bean leaf disks.
The compounds or mixtures were formulated using a solution containing 75% water and 25% DMSO. Concentrations of formulated compounds or mixtures were sprayed onto the leaf disks at 2.5 μl, using a custom built micro atomizer, at two replications. […]
After application, the leaf disks were air-dried and 5-8 adult aphids placed on the leaf disks inside the microtiter plate wells. […] Aphid mortality and fecundity was then visually assessed.

The subject of test [4] is tobacco budworm (Heliothis virescens). Kind of test: Test 4 tobacco budworm, insect diet with eggs (mixtures). The protocol:
(§2) For evaluating control of tobacco budworm (Heliothis virescens) the test unit consisted of 96-well-microtiter plates containing an insect diet and 15-25 H. virescens eggs.
The compounds or mixtures were formulated using a solution containing 75% water and 25% DMSO. Concentrations of formulated compounds or mixtures were sprayed onto the insect diet at 10 μl, using a custom built micro atomizer, at two replications.
(§3) For experimental mixtures in these tests identical volumes of both mixing partners at the desired concentrations respectively, were mixed together.
(§4) After application, microtiter plates were incubated at 28±1° C., 80±5% RH for 5 days. Egg and larval mortality was then visually assessed.

In test [5] the test system is brown planthopper (Nilaparvata lugens). Kind of test: Test 6 brown planthopper, foliar spray (mixtures). The following applies: solo application I-R-1, use rate 5 ppm. The procedure: For evaluating control of brown planthopper (Nilaparvata lugens) by foliar spray method. Clean potted rice seedlings with upper leaf portion cut are properly labeled. Placed three potted rice plants per treatment concentration/combination on top of the rotating disc (270 mm) and sprayed with the 12 mL spray solution. Treated plants are allowed to air-dry in the laboratory for about an hour. After air-drying, covered each treated rice plant. Each treated plant was infested with brown planthoppers using a suction vacuum. Plants are maintained at 27° C.±1° C., 50±5% RH and 24 hours light conditions in a holding room. Percent mortality is recorded 7 days after infestation by counting both the dead and alive brown planthoppers on the plants and on the water.

For test [6], the system named is vetch aphid (Megoura viciae). The test can be described thus: Test 7 vetch aphid, leaf disks (mixtures). The protocol:
as §1
The compounds or mixtures were formulated using a solution containing 75% water and 25% DMSO. Concentrations of formulated compounds or mixtures were sprayed onto the leaf disks at 2.5 μl, using a custom built micro atomizer, at two replications.
as §3
After application, the leaf disks were air-dried and 5-8 adult aphids placed on the leaf disks inside the microtiter plate wells. The aphids were then allowed to suck on the treated leaf disks and incubated at 23±1° C., 50±5% RH for 5 days. Aphid mortality and fecundity was then visually assessed.

Test [7] has as its system boll weevil (Anthonomus grandis). The test can be described thus: Test 9 boll weevil, insect diet with eggs (mixtures). The procedure: For evaluating control of boll weevil (Anthonomus grandis) the test unit consisted of 24-well-microtiter plates containing an insect diet and 20-30 A. grandis eggs.
The compounds or mixtures were formulated using a solution containing 75% water and 25% DMSO. Concentrations of formulated compounds or mixtures were sprayed onto the insect diet at 20 μl, using a custom built micro atomizer, at two replications.
as §3
After application, microtiter plates were incubated at 23±1° C., 50±5% RH for 5 days. Egg and larval mortality was then visually assessed.

Test [8] concerns tobacco budworm (Heliothis virescens). Kind of test: Test 10 tobacco budworm, insect diet with eggs (mixtures). The procedure: as §2
The compounds or mixtures were formulated using a solution containing 75% water and 25% DMSO. Different concentrations of formulated compounds or mixtures were sprayed onto the insect diet at 10 μl, using a custom built micro atomizer, at two replications.
as §3, §4

Test [9] concerns yellow fever mosquito (Aedes aegypti). The settings on record: Table 12; Yellow Fever Mosquito; solo application I-R-1, use rate 10 ppm. The protocol: For evaluating control of yellow fever mosquito (Aedes aegypti) the test unit consisted of 96-well-microtiter plates containing 200 μl of tap water per well and 5-15 freshly hatched A. aegypti larvae.
The compounds or mixtures were formulated using a solution containing 75% water and 25% DMSO. Different concentrations of formulated compounds or mixtures were sprayed onto the insect diet at 2.5 μl, using a custom built micro atomizer, at two replications.
as §3
After application, microtiter plates were incubated at 28±1° C., 80±5% RH for 2 days. Larval mortality was then visually assessed.

As usually defined, the mortality is the percentage killed.

Turning to `C[n+]1c([O-])c(-c2ccccc2)c(=O)n2c1SC[C@@H]2c1cnc(Cl)s1` [I-R-1, (3R)-3-(2-chlorothiazol-5-yl)-8-methyl-7-oxo-6-phenyl-2,3-dihydrothiazolo[3,2-a]pyrimidin-4-ium-5-olate], the mortality at 1 ppm was determined as 100% in [1] and 90% in test [2]. In addition, in the test on Chilo suppressalis, the mortality at 300 ppm was found to be 83%. For the same molecule, the Average control % in test [3] is given as 0%; in test [4] (Table 4.1, solo application I-R-1, use rate 10 ppm) it was 0%; in test [4] (Table 4.2, solo application I-R-1, use rate 0.4 ppm), 0%; in test [5] (Table 6.1, after 7 days), 62%; in [5] (Table 6.2, after 7 days), 62%; in test [6] (Table 7.1, solo application I-R-1, use rate 2 ppm), 25%. For the same molecule, the Average control % is listed as 25% in test [6] (Table 7.2, solo application I-R-1, use rate 2 ppm); 25% in test [7] (Table 9.1, solo application I-R-1, use rate 50 ppm); 25% in [7] (Table 9.2, solo application I-R-1, use rate 10 ppm); 0% in [8] (Table 10.1, solo application I-R-1, use rate 10 ppm); 25% in test [8] (Table 10.2, solo application I-R-1, use rate 10 ppm); 0% in test [9].
